# Patent publication US8309593B2, “2-acylaminopropoanol-type glucosylceramide synthase inhibitors” (Genzyme Corporation, priority 2008, dated 2012)
# Test system: GM3
# Test: GM3 Elisa assay
# Type: cell-based
# Settings: 48 h, Table 1; B16-FO cells, 2 days with compound; read-out: IC50_uM_Mean
# Description: B16-FO cells from ATCC (American Tissue Culture Collection) were grown in DMEM media (ATCC) with 10% Fetal Bovine Serum (Hyclone) and Pen/Step/Glutamine (Biowhittaker). 4000 cells per well were plated on collagen coated plates (BD) and allowed to attach for 6 hours in an incubator (37 degrees, 5% CO2). After 6 hours the compounds and controls were added to the wells, the plates mixed and returned to the incubator for 2 days. Day of assay the cells were fixed for 20 minutes with 1% formaldehyde and then washed with Tris Buffered Saline (TBS) 3 times, 150 μl of TBS was left in the wells and 50 μl of goat serum (Invitrogen) was added, the plates mixed and incubated for 1 hour at room temperature. The plates were flicked and the cells incubated with the monoclonal Antibody to GM3 (NeuAc) (Cosmo) for 45 minutes as room temperature. The plates were then washed 3 times with TBS, leaving 150 μl of TBS in the wells and Peroxidase AffinPure F (ab′) 2 frag Gt Anti-mouse IgM, μ Chain Specific (Jackson Immuno Research) was added in 50 μl, the plates mixed and incubated for 45 minutes at room temperature. The plates were washed 3 times with TBS, flicked and blotted and 100 μl of Quantablu (Pierce) was added to the wells and incubated for 1 hour then read on a Fluorometer at Ex 325 and Em 420. The data was then analyzed using standard programs.
row,IC50,SMILES
1,100 to 1000 nM,"CCc1ccc(OCCC(=O)N[C@H](CN2CCCC2)[C@H](O)c2ccc3c(c2)OCCO3)cc1 [Compound 188, N-((1R,2R)-1-(2,3-dihydrobenzo[b][1,4]dioxin-6-yl)-1-hydroxy-3-(pyrrolidin-1-yl)propan-2-yl)-3-(4-ethylphenoxy)propanamide (2R,3R)-2,3-dihydroxysuccinate]"
2,100 to 1000 nM,"CC(C)(C)c1ccc(C(=O)CCCCCC(=O)N[C@H](CN2CCCC2)[C@H](O)c2ccc3c(c2)OCCO3)cc1 [Compound 160, 7-(4-tert-butylphenyl)-N((1R,2R)-1-(2,3-dihydrobenzo[β][1,4]dioxin-6-yl)-1-hydroxy-3-(pyrrolidin-1-yl)propan-2-yl)-7-oxoheptanamide]"
3,≤ 100 nM,"CC(C)Oc1ccc(C(=O)CCC(=O)N[C@H](CN2CCCC2)[C@H](O)c2ccc3c(c2)OCCO3)cc1 [Compound 162, N-((1R,2R)-1-(2,3-dihydrobenzo[β][1,4]dioxin-6-yl)-1-hydroxy-3-(pyrrolidin-1-yl)propan-2-yl)-4-(4-isopropoxyphenyl)-4-oxobutanamide]"

# Same assay, conditions: Table 3 (title: IC 50 Values); read-out: IC50_uM_Mean
row,SMILES,IC50
1,COc1ccc(C(=O)CCCCCC(=O)N[C@H](CN2CCC[C@@H]2C)C(O)c2ccc3c(c2)OCCO3)cc1 (stereo partly drawn) [Compound 525],≤ 100 nM
2,COc1ccc(OCCC(=O)N[C@@H](CN2CCCC2)[C@@H](O)c2ccc3c(c2)OCCO3)cc1 [Compound 674],3000 to 10000 nM
3,CCCCCCCC(=O)N[C@H](CN1CC[C@H](O)C1)[C@@H](O)c1ccc2c(c1)OCCO2 [Compound 515],≤ 100 nM
4,CCCCCCCC(=O)N[C@H](CN1CC[C@H](F)C1)[C@H](O)c1ccc2c(c1)OCCO2 [Compound 510],3000 to 10000 nM
5,CCCCOc1ccc([C@H](O)[C@@H](CN2CC[C@H](O)C2)NC(=O)CCCCCCCOC)cc1 [Compound 586],≤ 100 nM
6,COc1ccc(OCCC(=O)N[C@H](CN2CCCC2)[C@@H](O)c2ccc3c(c2)OCCO3)cc1 [Compound 676],3000 to 10000 nM
7,CCCCCCCC(=O)N[C@H](CN1CC[C@@H](F)C1)[C@H](O)c1ccc2c(c1)OCCO2 [Compound 504],100 to 1000 nM
8,COc1ccc(C(=O)CCCCCC(=O)N[C@H](CN2CC3CC3C2)[C@@H](O)c2ccc3c(c2)OCCO3)cc1 (stereo partly drawn) [Compound 537],≤ 100 nM
9,CCCCCCCC(=O)N[C@H](CN1CC[C@@H](O)C1)[C@@H](O)c1ccc2c(c1)OCCO2 [Compound 512],1000 to 3000 nM
10,O=C(CCCCS(=O)(=O)C1CCCCC1)N[C@H](CN1CCCC1)[C@@H](O)c1ccc2c(c1)OCCO2 [Compound 557],3000 to 10000 nM
11,COC[C@@H]1CCCN1C[C@@H](NC(=O)CCOc1ccc(OC)cc1)C(O)c1ccc2c(c1)OCCO2 (stereo partly drawn) [Compound 535],3000 to 10000 nM
12,CCCCOc1ccc([C@@H](O)[C@@H](CN2CCC(F)C2)NC(=O)CCCCC(=O)c2ccc(F)cc2)cc1 (stereo partly drawn) [Compound 658],100 to 1000 nM
13,COc1ccc(OCCC(=O)N[C@H](CN2CCC[C@@H]2C)C(O)c2ccc3c(c2)OCCO3)cc1 (stereo partly drawn) [Compound 526],100 to 1000 nM
14,CC(O)(CCCCCC(=O)N[C@H](CN1CCCC1)[C@@H](O)c1ccc2c(c1)OCCO2)C1CCCCC1 (stereo partly drawn) [Compound 641],≤ 100 nM
15,CCCCCCCC(=O)N[C@H](CN1CCC[C@@H]1C)C(O)c1ccc2c(c1)OCCO2 (stereo partly drawn) [Compound 527],1000 to 3000 nM
16,O=C(CCCCOC1CCOCC1)N[C@H](CN1CC[C@@H](F)C1)[C@@H](O)c1ccc(CCc2ccccc2)cc1 [Compound 575],100 to 1000 nM
17,COC[C@H]1CCCN1C[C@@H](NC(=O)CCCCCC(=O)c1ccc(OC)cc1)[C@@H](O)c1ccc2c(c1)OCCO2 [Compound 539],3000 to 10000 nM
18,COc1ccc(C(=O)CCCCCC(=O)N[C@H](CN2C(C)CCC[C@H]2C)[C@@H](O)c2ccc3c(c2)OCCO3)cc1 (stereo partly drawn) [Compound 602],3000 to 10000 nM
19,O=C(CCCCCC(=O)c1ccc(F)cc1)NC(CN1CC[C@H](O)C1)[C@H](O)c1ccc2c(c1)OCCO2 (stereo partly drawn) [Compound 653],≤ 100 nM
20,COc1ccc(C(=O)CCCCCC(=O)N[C@H](CN2CCCC2)[C@@H](O)c2ccc(OC(F)(F)F)cc2)cc1 [Compound 666],100 to 1000 nM

# More lines, now with the values ahead:
row,IC50,SMILES
1,3000 to 10000 nM,COc1ccc(OCC[C@H](O)N[C@H](CN2C(C)CCCC2C)C(O)c2ccc3c(c2)OCCO3)cc1 (stereo partly drawn) [Compound 598]
2,100 to 1000 nM,O=C(CCCCCC1CCOCC1)N[C@H](CN1CC[C@@H](F)C1)[C@@H](O)c1cccc(OCc2ccccc2)c1 [Compound 574]
3,100 to 1000 nM,CCCCCCCCCCCCCCCC(=O)N[C@H](CN(C)C(C)C)[C@H](O)c1ccc2c(c1)OCCO2 [Compound 684]
4,3000 to 10000 nM,CCCCCCCC(=O)N[C@H](CN1CC(OCCC)C1)[C@H](O)c1ccc2c(c1)OCCO2 [Compound 596]
5,3000 to 10000 nM,O=C(N[C@H](CN1CCCC1)[C@H](O)c1ccc2c(c1)OCCO2)[C@H]1CC[C@@H](C(=O)c2ccc(F)cc2)C1 [Compound 635]
6,≤ 100 nM,O=C(CCCOc1ccc(F)cc1)N[C@@H](CN1CC[C@H](O)C1)[C@H](O)c1ccc2c(c1)OCCO2 [Compound 656]
7,100 to 1000 nM,CCCCOc1ccc([C@H](O)[C@@H](CN2CC[C@@H](F)C2)NC(=O)CCCCCCCOC)cc1 [Compound 584]
8,3000 to 10000 nM,Cc1noc(CCCCC(=O)N[C@@H](CN2CCCC2)C(O)c2ccc3c(c2)OCCO3)n1 (stereo partly drawn) [Compound 652]
9,100 to 1000 nM,O=C(CCCCS(=O)(=O)C1CCCCC1)N[C@H](CN1CC[C@@H](F)C1)[C@@H](O)c1ccc(OCc2ccccc2)cc1 [Compound 572]
10,3000 to 10000 nM,CCCCCCCCCCCCCCCC(=O)N[C@H](CN(C)C1CCCC1)C(O)c1ccc2c(c1)OCCO2 (stereo partly drawn) [Compound 685]
11,3000 to 10000 nM,CCCCCCCC(=O)N[C@H](CN1CCC[C@H]1C)C(O)c1ccc2c(c1)OCCO2 (stereo partly drawn) [Compound 530]
12,3000 to 10000 nM,CCCCCCCC(=O)N[C@H](CN1CCCC1(C)C)[C@@H](O)c1ccc2c(c1)OCCO2 [Compound 553]
13,3000 to 10000 nM,COc1ccc(OCCC(=O)N[C@H](CN2[C@H](C)CC[C@@H]2C)[C@H](O)c2ccc3c(c2)OCCO3)cc1 [Compound 550]
14,1000 to 3000 nM,COc1ccc(OCCC(=O)N[C@H](CN2CCC[C@H]2C)C(O)c2ccc3c(c2)OCCO3)cc1 (stereo partly drawn) [Compound 528]
15,100 to 1000 nM,CC(O)(CCCCCC(=O)N[C@H](CN1CCCC1)[C@@H](O)c1ccc2c(c1)OCCO2)C1CCCC1 (stereo partly drawn) [Compound 633]
16,100 to 1000 nM,CCNC[C@@H](NC(=O)CCCCCC(=O)c1ccc(OC)cc1)C(O)c1ccc2c(c1)OCCO2 (stereo partly drawn) [Compound 467]
17,1000 to 3000 nM,COc1ccc(C(=O)CCCCCC(=O)N[C@H](CN2[C@H](C)CC[C@@H]2C)[C@H](O)c2ccc3c(c2)OCCO3)cc1 [Compound 548]
18,100 to 1000 nM,O=C(CCCCCCOCC(F)(F)F)N[C@H](CN1CCCC1)[C@@H](O)c1ccc2c(c1)OCCO2 [Compound 634]
19,3000 to 10000 nM,CCCCCCCCCCCCCCCCC(=O)N[C@H](CN(C)Cc1ccco1)[C@H](O)c1ccc2c(c1)OCCO2 [Compound 683]
20,3000 to 10000 nM,CCCCCCCC(=O)N[C@H](CN1CCC[C@H]1COC)C(O)c1ccc2c(c1)OCCO2 (stereo partly drawn) [Compound 534]
21,1000 to 3000 nM,COc1ccc(C(=O)CCCCCC(=O)N[C@H](CN2CCCC2(C)C)[C@@H](O)c2ccc3c(c2)OCCO3)cc1 [Compound 552]
22,100 to 1000 nM,CCCCCCCC(=O)N[C@H](CN1CC2CC2C1)[C@@H](O)c1ccc2c(c1)OCCO2 (stereo partly drawn) [Compound 517]
